Assay results taken from US8445636B2, “Antimicrobial and anticancer lipopeptides” (Yeda Research & Development Co. Ltd., priority 2003, dated 2013).
Read-outs that look alike come from different tables or passages of the source. Non-standard residues stand in square brackets, D forms with d. Residues, ends and D or L forms follow the SMILES beside them. *: point of attachment. Palmitoyl = CCCCCCCCCCCCCCCC(=O)*; Myristoyl = CCCCCCCCCCCCCC(=O)*

What was measured:
Assay type in all cases: cell-based
[1] = system: Candida albicans ATCC 10231; experiment: microbe, parasite or virus in culture; settings: ATCC 10231, pH 7.4
In short: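 Broth microdilution in RPMI 1640/0.165 M MOPS, 1×10^4 CFU/ml inoculum, 2-fold serial lipopeptide dilutions in water, pH 7.4 unless stated (pH 5.5 alternative). Incubated 24–48 h at 35 °C with agitation; growth read at A620. MIC = lowest concentration giving 100% growth inhibition.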

[2] = system: Cryptococcus neoformans ATCC MYA-422; experiment: microbe, parasite or virus in culture; settings: ATCC MYA-422, pH 7.4
[3] = Cytotoxicity, XTT viability, non-cancer cells; settings: mouse, non-cancer cell line, 24 h incubation, read-out: LC50, 3T3
Procedure: Prostate cancer cell lines (CL1 and 22RV1; ATCC, USA) were grown in RPMI-1640 supplemented with 10% FCS (Biological Industries, Beit Haemek, Israel). N1H-3T3 mouse fibroblast cell line (ATCC, USA) was grown in DMEM supplemented with 10% bovine serum. To test cytotoxicity against the cancer cells, aliquots of medium containing 1×10^4 cells were distributed into a 96-well plate (Falcon). After one day, the media were replaced with 90 μl of fresh media and 10 μl of a solution containing different concentrations of the peptides. The plate was then incubated for 24 h before adding to each well 50 μl of XTT reaction solution (Biological Industries, Beit Haemek, Israel); viability was determined as previously described (Papo et al., (2003) J. Biol. Chem. 278:21018-23). The LC50 (concentration at which 50% of the cells die) for each peptide was obtained from the dose-dependent cell viability curves.

E. aerogenes ATCC 35029 = settings: ATCC 35029, pH 7.4
In short: (§1)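 Broth microdilution: bacteria at 1×10^6 CFU/ml in LB medium (pH 7.4 unless stated; pH 5.5 also tested) mixed 1:1 with 2-fold serial lipopeptide dilutions in water, 18-20 h at 37° C. Growth read at 600 nm; MIC taken as lowest concentration giving 100% growth inhibition.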

[4] = system: Pseudomonas aeruginosa ATCC 27853
In short: as §1

[5] = system: Staphylococcus aureus ATCC 6538P
In short: as §1

E. coli ATCC 35218 = settings: ATCC 35218, pH 7.4
In short: as §1

[6] = system: Aspergillus fumigatus ATCC 26430; experiment: microbe, parasite or virus in culture; settings: ATCC 26430, pH 7.4
E. coli D21 = system: E. coli D21
[7] = system: Acinetobacter baumannii ATCC 19606
In short: as §1

[8] = system: Escherichia coli ATCC 25922
In short: as §1

M. laleus = settings: Table 3, short lipopeptides; pH 7.4
In short: as §1

[9] = Table 3, short lipopeptides, pH 7.4

Row | Compound | Minimal Inhibitory Concentration, C. albicans ATCC 10231 [1] | Minimal Inhibitory Concentration, C. neoformans ATCC MYA-422 [2] | CC50 at 24 h [3] | Minimal Inhibitory Concentration, E. aerogenes ATCC 35029 (E. aerogenes ATCC 35029) | Minimal Inhibitory Concentration, P. aeruginosa ATCC 27853 ([4]; ATCC 27853, pH 7.4) | Minimal Inhibitory Concentration, S. aureus ATCC 6538P ([5]; ATCC 6538, pH 7.4) | Minimal Inhibitory Concentration, E. coli ATCC 35218 (E. coli ATCC 35218) | Minimal Inhibitory Concentration, A. fumigatus ATCC 26430 [6] | further results
1 | CCCCCCCCCCCCCC(=O)N[C@H](CC(C)C)C(=O)N[C@@H](CCCCN)C(=O)N[C@@H](CCCCN)C(=O)N[C@H](CC(C)C)C(=O)N[C@H](CC(C)C)C(=O)N[C@@H](CCCCN)C(=O)N[C@@H](CCCCN)C(=O)N[C@H](CC(C)C)C(=O)N[C@H](CC(C)C)C(=O)N[C@@H](CCCCN)C(=O)N[C@@H](CCCCN)C(=O)N[C@H](CC(C)C)C(N)=O [lipopeptide 23, (CH3-(CH2)12-CO-)-D-Leu-Lys-Lys-D-Leu-D-Leu-Lys-Lys-D-Leu-D-Leu-Lys-Lys-D-Leu-NH2] (Myristoyl-[dL]KK[dL][dL]KK[dL][dL]KK[dL]-NH2) | 1.56 µM | 0.78 µM | 50 µM | >50 µM | 50 µM | 50 µM | 50 µM | 1.56 µM | 
2 | CCCCCCCCCCCCCCCC(=O)N[C@H](CC(C)C)C(=O)N[C@@H](CCCCN)C(=O)N[C@@H](CCCCN)C(=O)N[C@H](CC(C)C)C(=O)N[C@H](CC(C)C)C(=O)N[C@@H](CCCCN)C(=O)N[C@@H](CCCCN)C(=O)N[C@H](CC(C)C)C(=O)N[C@H](CC(C)C)C(=O)N[C@@H](CCCCN)C(=O)N[C@@H](CCCCN)C(=O)N[C@H](CC(C)C)C(N)=O [lipopeptide 24, (CH3-(CH2)14-CO-)-D-Leu-Lys-Lys-D-Leu-D-Leu-Lys-Lys-D-Leu-D-Leu-Lys-Lys-D-Leu-NH2] (Palmitoyl-[dL]KK[dL][dL]KK[dL][dL]KK[dL]-NH2) | 1.56 µM | 0.78 µM | 50 µM | >50 µM | >50 µM | 50 µM | 50 µM | 1.56 µM | 
3 | Gentamycin [reference compound] |  |  |  |  |  |  |  |  | Minimal Inhibitory Concentration, E. coli-D21 (E. coli D21; [9]): 1.56 µM; Minimal inhibitory concentrations, E. Coli D21 (E. coli D21; Table 6, pH 7.4): 12.5 µM; Minimal inhibitory concentrations, E. Coli D21 (E. coli D21; Table 7, pH 5.5): 12.5 µM; Minimal Inhibitory Concentration, A. baumannii ATCC 19606 [7, 9]: 3.12 µM; Minimal inhibitory concentrations, A. baumannii ATCC 19606 ([7]; Table 6, pH 7.4): 12.5 µM; Minimal inhibitory concentrations, A. baumannii ATCC 19606 ([7]; Table 7, pH 5.5): 12.5 µM; Minimal Inhibitory Concentration, P. aeruginosa ATCC 27853 [4, 9]: 0.78 µM; Minimal inhibitory concentrations, P. Aeruginosa ATCC 27853 ([4]; Table 6, pH 7.4): 12.5 µM; Minimal inhibitory concentrations, P. Aeruginosa ATCC 27853 ([4]; Table 7, pH 5.5): 12.5 µM; Minimal inhibitory concentrations, E. Coli ATCC 25922 ([8]; Table 6, pH 7.4): 6.25 µM; Minimal inhibitory concentrations, E. Coli ATCC 25922 ([8]; Table 7, pH 5.5): 12.5 µM; Minimal Inhibitory Concentration, S. aureus ATCC 6538P [5, 9]: 6.25 µM; Minimal inhibitory concentrations, S. aureus II ATCC 6538P ([5]; Table 6, pH 7.4): 12.5 µM; Minimal inhibitory concentrations, S. aureus II ATCC 6538P ([5]; Table 7, pH 5.5): 25 µM; Minimal Inhibitory Concentration, M. laleus (M. laleus): 0.78 µM
